Literature values in PubChem BioAssay AID1259409 (Chemical Carcinogenesis Research Information System (CCRIS), 2018).

Tested on: rodent chemically induced tumor inhibition, incidence and multiplicity
Test: CCRIS tumor inhibitor studies
Conditions: Dose [Inhibitor]: 0, Route [Inhibitor]: ORAL, Species: RAT, Promoter: NONE USED

## N#C[Se]Cc1ccc(C[Se]C#N)cc1
Carcinogen: 7,12-DIMETHYLBENZ[A]ANTHRACENE, 57-97-6, 5 PPM (AS SELENIUM) IN DIET BEGINNING 2 WK PRIOR TO CARCINOGEN DOSE AND CONTINUING FOR 1 WK POST CARCINOGEN DOSE (STU, Strain/Sex: SPRAGUE-DAWLEY/FEMALE, Target Tissue: Type of Lesion: MAMMARY GLAND: ADENOCARCINOMA, Dose [Carcinogen]: 10 MG ONCE AT 55 D OF AGE
  tumour outcome (control, treated, inhibition, significance): 22/25 (88%), 15/25 (60%), 32%, p<0.05
Carcinogen: 7,12-DIMETHYLBENZ[A]ANTHRACENE, 57-97-6, 5 PPM (AS SELENIUM) IN DIET BEGINNING 2 WK PRIOR TO CARCINOGEN DOSE AND CONTINUING FOR DURATION OF STUDY (STUDY DURAT, Strain/Sex: SPRAGUE-DAWLEY/FEMALE, Target Tissue: Type of Lesion: MAMMARY GLAND: ADENOCARCINOMA, Dose [Carcinogen]: 10 MG ONCE AT 55 D OF AGE
  tumour outcome (control, treated, inhibition, significance): 88%, 52%, 41%, p<0.05
Carcinogen: 7,12-DIMETHYLBENZ[A]ANTHRACENE, 57-97-6, 10 PPM (AS SELENIUM) IN DIET BEGINNING 1 WK POST CARCINOGEN DOSE AND CONTINUING FOR 25 WK (STUDY DURATION: 25 WK), Strain/Sex: SPRAGUE-DAWLEY/FEMALE, Target Tissue: Type of Lesion: MAMMARY GLAND: ADENOCARCINOMA, Dose [Carcinogen]: 10 MG ONCE AT 55 D OF AGE
  tumour outcome (control, treated, inhibition, significance): 22/25 (88%), 14/25 (56%), 36%, p<0.05
Carcinogen: 7,12-DIMETHYLBENZ[A]ANTHRACENE, 57-97-6, 10 PPM (AS SELENIUM) IN DIET BEGINNING 2 WK PRIOR TO CARCINOGEN DOSE AND CONTINUING FOR 1 WK POST CARCINOGEN DOSE (ST, Strain/Sex: SPRAGUE-DAWLEY/FEMALE, Target Tissue: Type of Lesion: MAMMARY GLAND: ADENOCARCINOMA, Dose [Carcinogen]: 10 MG ONCE AT 55 D OF AGE
  tumour outcome (control, treated, inhibition, significance): 22/25 (88%), 12/25 (48%), 45%, p<0.05
Carcinogen: 7,12-DIMETHYLBENZ[A]ANTHRACENE, 57-97-6, 10 PPM (AS SELENIUM) IN DIET BEGINNING 2 WK PRIOR TO CARCINOGEN DOSE AND CONTINUING FOR DURATION OF STUDY (STUDY DURA, Strain/Sex: SPRAGUE-DAWLEY/FEMALE, Target Tissue: Type of Lesion: MAMMARY GLAND: ADENOCARCINOMA, Dose [Carcinogen]: 10 MG ONCE AT 55 D OF AGE
  tumour outcome (control, treated, inhibition, significance): 88%, 40%, 55%, p<0.05
Carcinogen: 7,12-DIMETHYLBENZ[A]ANTHRACENE, 57-97-6, 15 PPM (AS SELENIUM) IN DIET BEGINNING 1 WK POST CARCINOGEN DOSE AND CONTINUING FOR 25 WK (STUDY DURATION: 25 WK), Strain/Sex: SPRAGUE-DAWLEY/FEMALE, Target Tissue: Type of Lesion: MAMMARY GLAND: ADENOCARCINOMA, Dose [Carcinogen]: 10 MG ONCE AT 55 D OF AGE
  tumour outcome (control, treated, inhibition, significance): 22/25 (88%), 12/25 (48%), 45%, p<0.05
Carcinogen: 7,12-DIMETHYLBENZ[A]ANTHRACENE, 57-97-6, 15 PPM (AS SELENIUM) IN DIET BEGINNING 2 WK PRIOR TO CARCINOGEN DOSE AND CONTINUING FOR 1 WK POST CARCINOGEN DOSE (ST, Strain/Sex: SPRAGUE-DAWLEY/FEMALE, Target Tissue: Type of Lesion: MAMMARY GLAND: ADENOCARCINOMA, Dose [Carcinogen]: 10 MG ONCE AT 55 D OF AGE
  tumour outcome (control, treated, inhibition, significance): 22/25 (88%), 6/25 (24%), 73%, p<0.05
Carcinogen: 7,12-DIMETHYLBENZ[A]ANTHRACENE, 57-97-6, 80 PPM IN HIGH FAT DIET FOR 2 WK BEGINNING 1 WK PRIOR TO CARCINOGEN DOSE (STUDY DURATION: 17 WK), Strain/Sex: SPRAGUE-DAWLEY/FEMALE, Target Tissue: Type of Lesion: MAMMARY GLAND: TUMOR, Dose [Carcinogen]: 5 MG IN 0.2 ML OLIVE OIL ONCE
  tumour outcome (control, treated, inhibition, significance): 22/25 (88%), 5/25 (20%), 77%, p<0.01
Carcinogen: AZOXYMETHANE, 25843-45-2, 20 PPM IN HIGH-FAT DIET BEGINNING 2 WK PRIOR TO CARCINOGEN TREATMENT AND CONTINUING FOR 3 D POST CARCINOGEN TREATMENT, Strain/Sex: F344/MALE, Target Tissue: Type of Lesion: COLON: ADENOCARCINOMA, Dose [Carcinogen]: 15 MG/KG BW/WK FOR 2 WK
  tumour outcome (control, treated, inhibition, significance): 80%, 63%, 21%, not significant
Carcinogen: AZOXYMETHANE, 25843-45-2, 40 PPM IN HIGH-FAT DIET BEGINNING 2 WK PRIOR TO CARCINOGEN TREATMENT AND CONTINUING FOR 3 D POST CARCINOGEN TREATMENT, Strain/Sex: F344/MALE, Target Tissue: Type of Lesion: COLON: ADENOCARCINOMA, Dose [Carcinogen]: 15 MG/KG BW/WK FOR 2 WK
  tumour outcome (control, treated, inhibition, significance): 80%, 50%, 38%, p<0.05
Carcinogen: AZOXYMETHANE, 25843-45-2, 40 PPM IN HIGH-FAT DIET FOR DURATION OF STUDY BEGINNING 3 D POST CARCINOGEN TREATMENT (STUDY DURATION: 36 WK), Strain/Sex: F344/MALE, Target Tissue: Type of Lesion: COLON: ADENOCARCINOMA, Dose [Carcinogen]: 15 MG/KG BW/WK FOR 2 WK
  tumour outcome (control, treated, inhibition, significance): 80%, 37%, 54%, p<0.05
